Results taken from patent US7078499B2, “Nucleotide analogues comprising a reporter moiety and a polymerase enzyme blocking moiety” (GE Healthcare UK Limited, priority 2000, dated 2006).

Experiments:
Type in all cases: biochemical
SAV RT = test: Mesophilic reverse transcriptase reaction, SAV RT; parameters: key to result of incorporation (termination / further chain extension): T: Incorporation results in termination; E: Incorporation permits further chain extension; T/E: Predominant product is primer extended by one base, but evidence of some further extension also observed; settings: RNA template, final enzyme concentration of 4 units/μl
Description: (§1) DNA polymerase assays were performed using Sequence 1 as primer and Sequence 2 as template. • Sequence 1 5′[Cy3]TAACTCATTAACAGGATC 3′ • Sequence 2 5′AT TCGCGGTATTCTGGTATGAAGCTTTTAGATCCTGTTAATGAGTTA GTA3′
(§2) The template (Sequence 2) was designed such that the base (underlined) immediately adjacent to the 3′ end of the hybridised primer is complementary to the nucleotide test compound. Nucleotide test compounds were compounds (6) (4′-C-(glycylaminomethyl)thymidine triphosphate), (8) (4′-C-(N-trifluoroacetyaminomethyl)thymidine triphosphate) and (9) (4′-C-(aminomethyl)thymidine triphosphate) as described above.
(§3) Primer extension reactions were performed using the above primers in the presence of 40 to 80 μM of nucleotide triphosphates. Positive control reactions contained all four native nucleotide triphosphates. For the other reactions the TTP was replaced with either a 2:1 ratio of […] for the terminator control, or entirely by the test compound The enzymes were used at a final concentration of 0.175 units/μl and a magnesium ion concentration of 2.5 mM in buffers supplied by the manufacturer. The primer and template concentrations were 0.5 pmol/μl and 2 pmol/μl respectively.
(§4) Extension reactions preformed with mesophilic polymerases were carried out by mixing all the components of the reaction except the enzyme and heating to 70° C. for 5 min. After the reactions had cooled to room temperature 0.175 units of the enzyme were added and the reactions heated to 37° C. for 20–40 minutes. The following enzymes were used: T7 DNA polymerase (T7); Sequenase 2™ (Seq); Klenow fragment of DNA polymerase 1 (Klen); phi-29 DNA polymerase (Phi-29); T4 DNA polymerase (T4) (all from AP Biotech) and Bst DNA polymerase (Bst) (Cambio Ltd).
(§5) Reverse transcriptase reactions were performed essentially as described above for thermophilic and mesophilic enzymes. The template for these reactions was the RNA equivalent of sequence 2. All the thermophilic enzymes were assayed in Tth reaction buffer (Cambio Ltd, Cambridge UK) containing 2.5 mM Manganese ions. The following enzymes were used: Thermosequenase (TS1); Thermosequenase II (TSII); delta Tts DNA polymerase (deltaTts); delta Tts D DNA polymerase (deltaTtsD) (all from APBiotech); Retrotherm reverse transcriptase (Retroth) (Cambio Ltd); Tth DNA polymerase (Tth) (Cambio Ltd.).
(§6) Mesophilic reverse transcriptases (AMV RT; MuLV RT; SAV RT and HIV RT all from APBiotech) were assayed in their respective buffers with a final enzyme concentration of 4 units/μl.
(§7) The reactions were stopped by adding a 0.5 volume aliquot of 80% formamide containing 0.1% (w/v) bromophenol blue and 0.1% (w/v) cresol blue. The reaction products were separated by denaturing gel electrophoresis at a constant power of 45 W on 16% polyacrylamide gels containing 50% urea.
(§8) Gels were scanned for Cy3 fluorescence on a Molecular Dynamics Fluorimager and the data analysed using Molecular Dynamics ImageQuant 5 software.
(§9) The incorporation of a test nucleotide triphosphate results in the appearance on a polyacrylamide gel of a single band corresponding to a single base extension product. If, however, the enzyme adds additional bases then further bands would be observed that corresponded to either the full-length product or positions of other complementary bases in the template.

HIV RT = target: T1, HIV RT (Human immunodeficiency virus type 1 group M subtype B, UniProt P03366); test: Mesophilic reverse transcriptase reaction, HIV RT; parameters: key to result of incorporation (termination / further chain extension): T: Incorporation results in termination; E: Incorporation permits further chain extension; T/E: Predominant product is primer extended by one base, but evidence of some further extension also observed; key to primer extended by at least one base within assay time (grade): −: No extension within assay time; +/−: up to 25% of primer extended by at least one base within assay time; +: up to 50% of primer extended by at least one base within assay time; ++: up to 75% of primer extended by at least one base within assay time; +++: essentially all primer extended by at least one base within assay time; settings: RNA template, final enzyme concentration of 4 units/μl
T1 construct: AMV RT; MuLV RT; SAV RT and HIV RT all from APBiotech; purchased APBiotech
Description: as §1, §2, §3, §4, §5, §6, §7, §8, §9

T4 DNA polymerase = target: T2, T4 DNA polymerase (Enterobacteria phage T4, UniProt P04415); test: Mesophilic DNA polymerase primer extension, T4; parameters: key to result of incorporation (termination / further chain extension): T: Incorporation results in termination; E: Incorporation permits further chain extension; T/E: Predominant product is primer extended by one base, but evidence of some further extension also observed; settings: DNA template, 37° C. for 20–40 minutes; for primer extended by at least one base within assay time (grade): TTP replaced entirely by test compound
T2 construct: purchased AP Biotech
T2 sequence (P04415 1-898): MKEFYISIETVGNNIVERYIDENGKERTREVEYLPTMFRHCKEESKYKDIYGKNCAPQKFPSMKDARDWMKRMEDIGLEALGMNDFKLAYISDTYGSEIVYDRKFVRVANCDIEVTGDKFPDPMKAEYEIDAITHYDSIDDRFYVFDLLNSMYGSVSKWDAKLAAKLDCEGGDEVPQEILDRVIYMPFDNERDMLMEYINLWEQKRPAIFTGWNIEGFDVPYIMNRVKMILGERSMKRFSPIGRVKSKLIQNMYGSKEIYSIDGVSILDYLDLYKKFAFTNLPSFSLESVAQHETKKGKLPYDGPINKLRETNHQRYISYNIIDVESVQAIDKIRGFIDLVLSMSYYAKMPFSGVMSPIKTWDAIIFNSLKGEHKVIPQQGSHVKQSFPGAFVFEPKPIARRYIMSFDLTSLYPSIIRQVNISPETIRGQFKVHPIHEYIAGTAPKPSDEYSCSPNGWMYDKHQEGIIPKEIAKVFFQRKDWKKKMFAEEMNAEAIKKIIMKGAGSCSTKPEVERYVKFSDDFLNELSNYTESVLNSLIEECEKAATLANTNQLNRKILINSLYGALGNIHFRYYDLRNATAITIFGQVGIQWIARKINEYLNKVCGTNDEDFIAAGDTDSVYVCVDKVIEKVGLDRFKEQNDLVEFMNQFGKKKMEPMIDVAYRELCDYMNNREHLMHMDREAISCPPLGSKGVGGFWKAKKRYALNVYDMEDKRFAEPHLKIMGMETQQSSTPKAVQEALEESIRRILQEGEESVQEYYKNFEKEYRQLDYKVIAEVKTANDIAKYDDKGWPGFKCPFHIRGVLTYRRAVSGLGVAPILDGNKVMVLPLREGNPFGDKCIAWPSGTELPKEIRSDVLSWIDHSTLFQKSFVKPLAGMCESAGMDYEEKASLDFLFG
Description: as §1, §2, §3, §4, §7, §8, §9

Compound | primer extended by at least one base within assay time (grade) (SAV RT) | result of incorporation (termination / further chain extension) (SAV RT) | primer extended by at least one base within assay time (grade) (HIV RT) | result of incorporation (termination / further chain extension) (HIV RT) | result of incorporation (termination / further chain extension) (T4 DNA polymerase) | primer extended by at least one base within assay time (grade) (T4 DNA polymerase)
4′-C-(Aminomethyl)thymidine triphosphate [compound (9)] | ++ (up to 75% of primer extended by at least one base within assay time) | E | +++ | E | T | + (up to 50% of primer extended by at least one base within assay time)
4′-C-(Glycylaminomethyl)thymidine triphosphate [compound (6)] | + (up to 50% of primer extended by at least one base within assay time) | E? | +++ | E | T | + (up to 50% of primer extended by at least one base within assay time)
Cc1cn([C@H]2C[C@H](O)[C@@](CNC(=O)C(F)(F)F)(COP(=O)(O)OP(=O)(O)OP(=O)(O)O)O2)c(=O)[nH]c1=O [compound (8), 4′-C-(N-trifluoroacetylaminomethyl)thymidine triphosphate] | ++ (up to 75% of primer extended by at least one base within assay time) | E | +++ | E | T | + (up to 50% of primer extended by at least one base within assay time)
